In brackets after ≈: the same amount, converted by molar mass.
Settings: buffer; pH 7.4; 200.0 µM

Row | Structure (SMILES) | solubility kinetic [µg/mL]
1 | CCOC(=O)CCn1c(=S)n(CCC(=O)OCC)c2ccccc21 | 49.5 (≈ 141 µM)
2 | ON=C1c2ccccc2-c2ccccc21 | 1.3 (≈ 6.66 µM)
3 | CC(CC(=O)O)C(=O)c1ccc(Cl)c([N+](=O)[O-])c1 (centres undefined) | > 40.7
4 | COC(=O)c1c(C)[nH]c(C(=O)OCc2csc(CC(=O)Nc3ccccc3C)n2)c1C | 7.4 (≈ 16.8 µM)
5 | CC1(C(=O)N2CCN(C(=O)c3ccco3)CC2)CC1(Br)Br (centres undefined) | > 63
6 | O=C(Oc1ccc(C(=S)N2CCOCC2)cc1)c1ccccc1[N+](=O)[O-] | 16.8 (≈ 45.1 µM)
7 | O=C(Nc1cccc(F)c1)c1c(O)c2ccccc2[nH]c1=O | < 0.3
8 | Cc1ccc(CN(C)C(=O)CCc2c[nH]c3ccccc23)o1 | 6.5 (≈ 21.9 µM)
9 | Cc1ccc(SCC(=O)Nc2cccc(C)c2)cc1 | 0.8 (≈ 2.95 µM)
10 | CC(=O)c1c(C)[nH]c(C(=O)COC(=O)COc2ccccc2)c1C | 16.3 (≈ 49.5 µM)
11 | COc1ccc(C(=O)CCNc2ccc(F)cc2)cc1 | < 0.6
12 | CC1(C)CN(C(=S)Nc2ccc(F)cc2F)C1=O | 5.1 (≈ 18.9 µM)
13 | CC(=O)c1ccc(NC(=O)Nc2cccc3ccccc23)cc1 | 0.4 (≈ 1.31 µM)
14 | Cc1cccc2sc(NC(=O)CN3C(=O)NC4(CCCC4)C3=O)nc12 | 46.6 (≈ 130 µM)
15 | Cc1cc(C)cc(NC(=O)c2cc(C)n(Cc3cccs3)c2C)c1 | 2.3 (≈ 6.8 µM)
16 | O=S(=O)(c1ccccc1)N(Cc1cccc(F)c1)c1ccccc1 | < 0.7
17 | Cc1nc(/C(N)=N/OC(=O)c2c(-c3ccccc3Cl)noc2C)cs1 | 48.2 (≈ 128 µM)
18 | COc1ccc(C(CNC(=O)c2ccc3c(c2)CCC3)N(C)C)cc1 (centres undefined) | > 50.8
19 | CN1CCN(CC(C)(C)NS(=O)(=O)c2ccccc2)CC1 | > 46.7
20 | CCCC(=O)N/C(N)=N/c1nc(C)c2cc(C)ccc2n1 | 8.5 (≈ 29.8 µM)
21 | CCOc1ccc(CC(=O)N/N=C/c2cccnc2)cc1 | > 42.5
22 | Cc1c(C(=O)NC2CCCc3ccccc32)cccc1[N+](=O)[O-] (centres undefined) | 6.1 (≈ 19.7 µM)
23 | Cc1ccc(C)c(-n2c(=O)c(C#N)cc3c(=O)n4ccccc4nc32)c1 | 6.2 (≈ 18.1 µM)
24 | CN(c1ccccc1)S(=O)(=O)c1cc(C(=O)N2CCN(c3ncccn3)CC2)ccc1Cl | 33.5 (≈ 71 µM)

Row | Structure (SMILES) | solubility kinetic [µg/mL]
25 | O=C(NCc1ccccc1)c1cccc(S(=O)(=O)N2CCCCC2)c1 | 7.6 (≈ 21.2 µM)
26 | Cc1cc2nc(/C(C#N)=C/c3ccncc3)[nH]c2cc1C | 1.7 (≈ 6.2 µM)
27 | CCNc1nc(NCC)nc(OCC(=O)O)n1 | > 36.2
28 | Cc1cccc(CC(=O)N2CCOCC2)c1 | > 32.9
29 | Cc1ccc(S(=O)(=O)N2CCN(C(=O)CNC(=O)c3ccc(Cl)cc3)CC2)cc1 | 8.1 (≈ 18.6 µM)
30 | c1cn(CCCNC2CCCCCCC2)cn1 | 23.9 (≈ 102 µM)
31 | O=C(CN1CCCC1)OCCCC1CCCCC1 | 17.9 (≈ 70.6 µM)
32 | O=C(O)CCCCCNCc1c(Cl)cccc1Cl | 41.6 (≈ 143 µM)
33 | O=Cc1c(NCc2ccc(F)cc2)c2ccccc2[nH]c1=O | 2.6 (≈ 8.77 µM)
34 | O=C(N/C=C\n1cnc2cc(C(F)(F)F)ccc21)c1ccc([N+](=O)[O-])cc1 | 2.8 (≈ 7.44 µM)
35 | COc1cccc(NC(=O)N2CCc3ccccc3C2)c1 | > 42.4
36 | CSc1nc2c(c(=O)[nH]1)C(c1cccc(Cl)c1)CC(=O)N2 (centres undefined) | 4.6 (≈ 14.3 µM)
37 | O=C1CC(=O)N(c2ccc(Cl)cc2)C(=O)N1 | > 35.8
38 | Cc1cccc(N2CCN(C(=O)c3oc4ccc(Br)cc4c3C)CC2)c1C | 4.3 (≈ 10.1 µM)
39 | O=C(CN1C(=O)NC2NC(=O)NC21)NC1CCCCC1 (centres undefined) | > 42.2
40 | CSc1nc(C)c(Cc2c(F)cccc2Cl)c(=O)[nH]1 | 1 (≈ 3.35 µM)
41 | CSc1cccc(NC(=O)COC(=O)C2(c3ccccc3)CC2)c1 | 10.7 (≈ 31.3 µM)
42 | CC(NC(=O)c1ccc(S(=O)(=O)C(F)F)cc1)c1ccccc1 (centres undefined) | > 50.9
43 | CC1=C(C(=O)N(C)C)C(c2ccc(C)s2)NC(=S)N1 (centres undefined) | 31.4 (≈ 106 µM)
44 | COc1cccc(OCC(O)CNC(C)c2ccccc2)c1.Cl (centres undefined) | 49.1
45 | COc1cc(NC(=O)c2ccccc2)c(OC)cc1NC(=O)Cc1ccc(C)cc1 | < 0.4
46 | CC(C)(C)NC(=O)C(OC(=O)c1ccco1)c1ccccc1F (centres undefined) | > 47.9
47 | N=c1oc2ccccc2cc1C(=O)Nc1ccccc1 | 0.6 (≈ 2.27 µM)
48 | NS(=O)(=O)c1ccc(NC(=S)N2CCCC2)cc1 | > 42.8

Row | Structure (SMILES) | solubility kinetic [µg/mL]
49 | COc1ccc(C(=O)Nc2cc(C(=O)O)cc(C(=O)O)c2)cc1Cl | > 52.5
50 | Cc1cc(N2CCCC2)nc2ccccc12 | 31.6 (≈ 149 µM)
51 | O=C(COc1cccc2cccnc12)NCc1cccs1 | 37.6 (≈ 126 µM)
52 | O=C(COC(=O)CNC(=O)c1ccccc1Cl)NC1CC1 | 37.4 (≈ 120 µM)
53 | NS(=O)(=O)c1cccc(C(=O)OCC(=O)NC2CCCc3ccccc32)c1 (centres undefined) | 21.6 (≈ 55.6 µM)
54 | CC(=O)c1ccc(NS(=O)(=O)c2ccc3c(c2)CCC(=O)N3)cc1 | 48.3 (≈ 140 µM)
55 | COc1ccc(C(CNC(=O)c2cc3c(s2)CCCC3)N2CCOCC2)cc1 (centres undefined) | 36.4 (≈ 90.9 µM)
56 | CCc1ccccc1NC(=S)NCCSc1ccc(Cl)cc1 | 1.8 (≈ 5.13 µM)
57 | Cl.c1ccc(NCc2cccc3ccccc23)nc1 | 4.1
58 | COc1ccc(/C=C/C(=O)OCC(=O)Nc2cccc(S(=O)(=O)NC3=NCCCCC3)c2)cc1 | 12.4 (≈ 25.5 µM)
59 | Nc1ccc[n+](CC(=O)c2ccccc2)c1.[Br-] | > 44
60 | O=C(NC(=S)Nc1ccc(O)cc1)C1CCCC1 | > 39.7
61 | N=C(N)N1CCN(Cc2ccccc2)CC1.O=S(=O)(O)O | 6.7
62 | Cc1cc(NC(=O)Cn2cnc3sc(C)c(C)c3c2=O)no1 | 17.3 (≈ 54.3 µM)
63 | Cc1ccc[n+](CC(=O)N2CCCCC2)c1C.[Br-] | > 47
64 | COc1cccc(NCCC(=O)c2cccc([N+](=O)[O-])c2)c1 | 12.4 (≈ 41.3 µM)
65 | O=C(N/N=C/c1ccccn1)c1ccncc1 | > 33.9
66 | Cc1ccccc1NC(=O)N1CCN(C/C=C/c2ccccc2)CC1 | > 50.3
67 | CC(C)(C)C(O)CN1CCCC1.Cl (centres undefined) | > 31.2
68 | CSc1ccc(CN(C)C(=O)C(c2ccccc2)c2ccccc2)cc1 | 7.7 (≈ 21.3 µM)
69 | O=C(Nc1ccc(Br)cn1)c1cccc(S(=O)(=O)N2CCCC2)c1 | 5.7 (≈ 13.9 µM)
70 | O=C1NC(c2ccc(F)cc2)Oc2ccccc21 (centres undefined) | 6.4 (≈ 26.3 µM)
71 | O=C(NCCNC(=O)c1ccc(F)cc1)c1ccc(F)cc1 | 12.9 (≈ 42.4 µM)
72 | CCc1cc(=O)oc2cc(C)cc(OCC(=O)NC3CC3)c12 | 25 (≈ 83 µM)

Row | Structure (SMILES) | solubility kinetic [µg/mL]
73 | COC(=O)C1=C(C)N(C)C(=O)NC1c1cccc2ccccc12 (centres undefined) | 30.2 (≈ 97.3 µM)
74 | COc1ccc(OCC(O)CNC(=O)c2ccccc2)cc1 (centres undefined) | 40.1 (≈ 133 µM)
75 | CC(=O)NCCc1nc2ccccc2n1CCOc1ccccc1C | > 50.6
76 | Cc1ccc(S(=O)(=O)NCCc2cccs2)cc1 | > 42.2
77 | COc1ccc(C(=O)OCC(=O)NC2CCCCCCC2)cc1OC | 29 (≈ 83 µM)
78 | CCCOc1nc(C)cc(COC)c1C(N)=O | > 35.7
79 | O=C(CCCN1CCC(O)(c2ccc(Cl)cc2)CC1)c1ccc(F)cc1 | 23.5 (≈ 62.5 µM)
80 | COc1ccccc1CNc1nc(C)c(C(=O)N(C)C)s1 | > 45.8
81 | CCCCNC(=O)c1ccc(CS(=O)(=O)c2ccc(C)cc2)o1 | > 50.3
82 | O=[N+]([O-])c1ccc(Cc2ccccn2)cc1 | > 32.1
83 | COc1ccc(CCC(C)NCc2ccc(F)cc2)cc1 (centres undefined) | 31.8 (≈ 111 µM)
84 | CC(C)N(Cc1ccccc1)C(=O)c1ccc2nsnc2c1 | 38.2 (≈ 123 µM)
85 | CC(O)c1cccc(NC(=O)C2CCCCC2)c1 (centres undefined) | 25.6 (≈ 104 µM)
86 | CN(C(=O)CSc1nnc2n1CCCCC2)C1(C#N)CCCCC1 | > 52.1
87 | O=C(Nc1cccc(S(=O)(=O)N2CCCC2)c1)c1cncc(Br)c1 | 60.4 (≈ 147 µM)
88 | O=C1NC(N2CCOCC2)=N/C1=C/c1ccc2c(c1)OCO2 | > 45.2
89 | CCP(=O)(c1cccc([N+](=O)[O-])c1)c1cccc([N+](=O)[O-])c1 | > 48
90 | Clc1ccc(-c2nc(N3CCOCC3)nc3ccccc23)cc1 | < 0.2
91 | CN(C)C(CNC(=O)c1ccco1)c1cccs1 (centres undefined) | > 39.7
92 | O=C(CSc1nc2ccccc2s1)NCC1CCCO1 (centres undefined) | > 46.3
93 | COc1ccc(NC(=O)/C(=C/c2cccs2)NC(=O)c2ccco2)cc1 | 5 (≈ 13.6 µM)
94 | CC(C)N1C(=O)C(O)(C2COC(C)(C)CC2=O)c2ccccc21 (centres undefined) | > 47.6
95 | CS(=O)(=O)N(CC(=O)N1CCOCC1)c1ccc(Cl)cc1 | > 49.9
96 | OCCOCCN1CCN(C2=Nc3ccccc3Sc3ccccc32)CC1 | 49.4 (≈ 129 µM)

Row | Structure (SMILES) | solubility kinetic [µg/mL]
97 | Cc1ccc(Cn2c(CCC(=O)O)nc3ncccc3c2=O)cc1 | > 48.5
98 | Cc1ccccc1CN1CCN(CC2CC2)CC1CCO (centres undefined) | > 43.3
99 | O=C1CCCN1CCCNS(=O)(=O)c1ccc(F)c(F)c1 | > 47.8
100 | CC(Sc1nnc(-c2ccco2)n1C)C(=O)NC1CCCC1 (centres undefined) | > 48.1
101 | Cl.Fc1ccc(-c2ccc(CNCc3ccccn3)o2)cc1 | 33.9
102 | Cc1cccc(OCC(=O)NCC(=O)N/N=C/c2cccnc2)c1 | > 49
103 | Cc1c(C(=O)N2c3ccccc3CC2C)oc2ccccc12 (centres undefined) | 0.7 (≈ 2.4 µM)
104 | NC(=O)CSc1nc2ccccc2nc1SCC(N)=O | 6.2 (≈ 20.1 µM)
105 | Cc1ccc(OCC(=O)NCCNC(=O)c2ccco2)cc1 | 32.9 (≈ 109 µM)
106 | Cc1cc(F)c(F)c(C(=O)N2C(C)CCCC2C)c1Cl (centres undefined) | 14.5 (≈ 48.1 µM)
107 | CN1CCN(C(=O)/C(C#N)=C/c2ccc(F)cc2)CC1.Cl | > 46.5
108 | CCc1nc2ccc(C(=O)NCc3ccccc3)cc2nc1CC | 3.6 (≈ 11.3 µM)
109 | CCC(=O)c1ccc(OCC(=O)Nc2nc(C)cs2)cc1 | 8.9 (≈ 29.2 µM)
110 | OC1(CC#CCN2CCCCC2)c2ccccc2-c2ccccc21 | 42.2 (≈ 133 µM)
111 | Cc1ccccc1Cn1c(C)nc2ccccc21 | > 35.4
112 | CN(c1ccccc1)S(=O)(=O)c1ccc(Cl)c(C(=O)NCc2ccco2)c1 | 47.2 (≈ 117 µM)
113 | CN1CCCC(OC(=O)c2ccccc2F)C1.Cl (centres undefined) | 39.7
114 | COc1ccc(CCNC(=O)Nc2cccs2)c(OC)c1 | 15.6 (≈ 50.9 µM)
115 | COc1ccc(C(=O)Nc2cc3c4c(c2)C(C)C(=O)N4CCC3)cc1 (centres undefined) | 38.6 (≈ 115 µM)
116 | CNC(=O)COc1ccc(S(=O)(=O)Nc2ccc(C)cc2)cc1 | > 50.2
117 | COc1ccc2[nH]c3c(c2c1)CCNC3C.Cl (centres undefined) | 30.1
118 | Cc1ccc(S(=O)(=O)N2CCOCC2)cc1C(=O)NC1=NCCS1 | > 55.4
119 | CC(C)c1nc2ccccc2n1CC(O)COC1CCCCC1 (centres undefined) | > 47.5

Source: PubChem BioAssay AID1996
